Reference: US20200390850A1, “PEPTIDES AND USES THEREOF” (LATERAL IP PTY LTD, priority 2018, published 2020)
Like-named read-outs stand apart in the source and are kept apart here. Positions of bridges follow the written chain, without caps; N, C: chain ends. Residues, ends and D or L forms follow the SMILES beside them.

Tests used:
[1] = Ex vivo metabolism of LAT8881 in human whole blood; format: in vitro ADME
Description: (§1) Human or rat blood was collected into K2EDTA tubes and approximately 2.94 mL of blood was transferred into a polypropylene tube and kept in a water bath at 37° C. […] At the indicated times, approximately 300 μL of the spiked blood sample was transferred into a vial containing 30 μL of OX Protease Inhibitor Cocktail (Sigma Aldrich; Product No. P2714), mixed well and centrifuged at 4° C. The plasma fraction was then collected, transferred into polypropylene tubes and stored at -80° C. […] […] NO:11)) and vortex-mixed with 200 μL of acetonitrile for 5 min at 1500 rpm. The resulting mixture was then centrifuged at 14000 rpm for 5 min and the supernatant was evaporated at 37° C. under a stream of nitrogen to dryness. The residue was reconstituted in 150 μL of reconstitution solution and approximately 150 μL of the reconstituted sample was transferred to a 96 well-plate for injection into the LC-MS system. […] The mobile phase was (a) 5% acetonitrile/water with 0.1% formic acid, and (b) 95% acetonitrile/water with 0.1% formic acid. Eluted peaks were analysed using mass spectrometry. For the analysis of LAT9998 (SEQ ID NO:11), a 5 μL aliquot of each plasma sample was injected into a Shimadzu Nexera UPLC system equipped with a Phenomenex Aeris Peptide XB-C18, 3.6 μm, 150×2.1 mm. The mobile phase was (a) 5% acetonitrile/water with 0.1% formic acid, and (b) 95% acetonitrile/water with 0.1% formic acid. Eluted peaks were analysed using mass spectrometry. Samples were analysed using an AB Sciex QTrap 5500 mass spectrometer with ESI in positive mode. MRM analyses were conducted with Ion Spray (IS) at 5500 V and the Curtain Gas (CUR) was set at 20. Multiple MRM transitions were monitored to ensure the chromatographic peaks observed are from the nominal compound. Results are reported as analyte peak area ratios (normalized versus internal standard peak area).

[2] = in vivo
[3] = Ex vivo metabolism of LAT8881 in rat whole blood; format: in vitro ADME
Description: as §1

[4] = tested on: rats with CFA-induced inflammation; assay: Paw withdrawal threshold in CFA-induced inflammatory (nociceptive) pain; format: in vivo, rat; conditions: 3 mg/kg body weight; at 1 and 2 hours after administration
Description: Briefly, rats were anaesthetized with 3% isoflurane mixed with 97% oxygen. The left paw was injected with 0.05 ml CFA emulsion (F5881, Sigma-Aldrich) in saline (CFA:saline=1:1, vol./vol.). After CFA injection, the animals were returned to their home cages. Regular observations were be carried out to monitor the conditions of the animals after injection.

[5] = tested on: nerve cells in spinal cord slices; assay: Spontaneous electrical activity in spinal cord slices from Chung model rats; format: cell-based, rat; conditions: 1 μM added to spinal cord slice
Description: Within 2 minutes of addition of 1 μM LATc9991F to the spinal cord slice, this electrical activity was suppressed; * indicates time that LATc9991F was added to the spinal cord slice preparation.
This study was undertaken to assess the effect of LATc9991F (SEQ ID NO:10) on spontaneous electrical activity on spinal cord slices from Chung model rats with confirmed neuropathic pain. LATc9991F is a non-human variant of LAT9991F that is derived from the feline, canine and equine variants of human growth hormone, as described in WO 2013/082667.
Briefly, spinal cord slices were prepared from Chung model rats with confirmed neuropathic pain symptoms, and spontaneous electrical activity was measured as in Example 1. […] Within 2 minutes of addition of LATc9991F to the slice, this electrical activity was suppressed by LATc9991F.

Chung rats = assay: Paw withdrawal threshold in nerve constriction model of neuropathic pain (Chung model); format: in vivo, rat; conditions: for paw withdrawal threshold of ipsilateral paw: vs vehicle
Description: Briefly, adult male Sprague-Dawley rats, 8-9 weeks old, weighing 220-250 g at the time of surgery, were purchased from Charles River UK Ltd.
The animals were housed in groups of 4 in an air-conditioned room on a 12-hour light/dark cycle. Food and water were available ad libitum. They were allowed to acclimatise to the experimental environment for three days by leaving them on a raised metal mesh for at least 40 min. The baseline paw withdrawal threshold (PWT) was examined using a series of graduated von Frey hairs for 3 consecutive days before surgery and re-assessed on the 6th to 8th day after surgery and on the 12th to 14th day after surgery before drug dosing.
Each rat was anaesthetized with 5% isoflurane mixed with oxygen (2 L per min) followed by an intramuscular (i.m.) injection of ketamine 90 mg/kg plus xylazine 10 mg/kg. The back was shaved and sterilized with povidone-iodine. The animal was placed in a prone position and a para-medial incision was made on the skin covering the L4-6 level. The L5 spinal nerve was carefully isolated and tightly ligated with 6/0 silk suture. The wound was then closed in layers after a complete hemostasis. A single dose of antibiotics (Amoxipen, 15 mg/rat, i.p.) was routinely given for prevention of infection after surgery. The animals were placed in a temperature-controlled recovery chamber until fully awake before being returned to their home cages.
The vehicle (1% DMSO in PBS) and LAT8881 (AOD9604, GL449; provided by Lateral Pharma Pty Ltd) was administrated intramuscularly (i.m.) into the leg of the side contralateral to the site of injury. Dosing was carried out by a second experimenter. The rats with validated neuropathic pain state were randomly divided into 5 experimental groups: 1 ml/kg vehicle, 0.1, 0.5, 1 and 5 mg/kg LAT8881.
Each group had 8 animals. The animals were placed in individual Perspex boxes on a raised metal mesh for at least 40 minutes before the test. Starting from the filament of lowest force (about 1 g), each filament was applied perpendicularly to the centre of the ventral surface of the paw until slightly bent for 6 seconds. If the animal withdrew or lifted the paw upon stimulation, then a hair with force immediately lower than that tested was used. If no response was observed, then a hair with force immediately higher was tested. The lowest amount of force required to induce reliable responses (positive in 3 out of 5 trials) was recorded as the value of PWT.
The drug test was carried out on the 12th to 14th day after surgery. PWT were assessed before, 1, 2 and 4 hours following drug or vehicle administration. The animals were rested by being returned to their home cages (about 30-60 min) between two neighbouring testing time points. LAT8881 was administered by a single intramuscular injection (IM) in the ipsilateral limb at a dose of about 0.1 mg/kg body weight to about 5 mg/kg body weight.
LAT9991 was administered by a single intramuscular injection (IM) in the ipsilateral limb at a dose of about 0.1 mg/kg body weight to about 5 mg/kg body weight.
Gabapentin, as a positive control, obtained from Actavis, UK (Lot No. GJ29), was administered orally at 100 mg/2 ml/kg in normal saline. Dosing was carried out by a second experimenter.
Briefly, LAT9991F was administered orally at a dose of about 1 mg/kg body weight to about 5 mg/kg body weight.
Briefly, LAT9991 was administered orally at a dose of about 1 mg/kg body weight, 2 mg/kg body weight and 5 mg/kg body weight.

Lamina I or II neurones = assay: Whole-cell patch clamp on spinal cord slices with intact dorsal root afferents: evoked post-synaptic currents; format: cell-based, rat; conditions: comparator; data not shown
Description: An in vitro spinal cord slice with intact dorsal root afferents combined with single-cell whole-cell patch clamp electrophysiological recording techniques was used to assess the electrophysiological properties of the peptide having the amino acid sequence of SEQ ID NO:2.
Spinal cord slices were prepared from chronic nerve constriction models of neuropathic pain (Chung models) and tested against the peptide of SEQ ID NO:2.
The spinal nerve ligation model (Chung model) was first reported by Kim and Chung (1992; Pain, 50(3):355-63) and involves a single tight ligation of the L5 spinal nerve. […] This model has been used as a “gold standard’ model for assessing the efficacy of novel compounds targeting neuropathic pain.
Adult male Sprague-Dawley rats, 8-9 weeks old, weighing 220-250 g at the time of surgery, were purchased from Charles River UK Ltd. The animals were housed in groups of 4 in an air-conditioned room on a 12-hour light/dark cycle. […] The baseline paw withdrawal threshold (PWT) was examined using a series of graduated von Frey hairs for 3 consecutive days before surgery and re-assessed on the 6th to 8th day after surgery and on the 12th to 14th day after surgery before drug dosing Each rat was anaesthetized with 5% isoflurane mixed with oxygen (2 L per min) followed by an intramuscular (i.m.) injection of ketamine 90 mg/kg plus xylazine 10 mg/kg. […]

CC[C@H](C)[C@H](NC(=O)[C@H](CCCNC(=N)N)NC(=O)[C@H](CC(C)C)NC(=O)[C@@H](N)Cc1ccc(O)cc1)C(=O)N[C@H](C(=O)N[C@@H](CCC(N)=O)C(=O)N[C@H]1CSSC[C@@H](C(=O)NCC(=O)N[C@@H](Cc2ccccc2)C(=O)O)NC(=O)[C@H](CO)NC(=O)CNC(=O)[C@H](CCC(=O)O)NC(=O)[C@H](C(C)C)NC(=O)[C@H](CO)NC(=O)[C@H](CCCNC(=N)N)NC1=O)C(C)C [LAT8881, YLRIVQCRSVEGSCGF] (H-YLRIVQCRSVEGSCGF-OH; disulfide 7-14; N-terminus and C-terminus assumed)
half-life ([1]; human blood, LAT8881-spiked, 37° C., read-out: ex vivo half-life): 3 to 6 min
half-life [2]: < 1 min
half-life ([3]; rat blood, LAT8881-spiked, 37° C., read-out: ex vivo half-life): 3 to 6 min

CC(C)[C@@H]1NC(=O)[C@H](CO)NC(=O)[C@H](CCCNC(=N)N)NC(=O)[C@@H](N)CSSC[C@@H](C(=O)NCC(=O)N[C@@H](Cc2ccccc2)C(=O)O)NC(=O)[C@H](CO)NC(=O)CNC(=O)[C@H](CCC(=O)O)NC1=O [LAT9991F, CRSVEGSCGF] (H-CRSVEGSCGF-OH; disulfide 1-8; N-terminus and C-terminus assumed)
half-life ([1]; human, blood): > 60 min
half-life ([3]; rat, blood): > 60 min

CN1CC[C@]23c4c5ccc(O)c4O[C@H]2[C@@H](O)C=C[C@H]3[C@H]1C5 [morphine]
analgesic effect on nociceptive pain (paw withdrawal threshold) [4]: significant analgesic effect

CRRFVESSCA (listed as Canis lupus) [LATc9991F, non-human variant of LAT9991F derived from the feline, canine and equine variants of human growth hormone]
spontaneous electrical activity in nerve cells [5]: suppressed
time after addition within which electrical activity was suppressed [5]: ≤ 2 min

CRSVEGSC (listed as Homo sapiens) [LAT9998, metabolite of LAT8881]
Detection of LAT9998 (peak area ratio) in all samples [1]: LAT9998 peaks were not detectable
Detection of LAT9998 (peak area ratio) in all samples [3]: LAT9998 peaks were not detectable

CRSVEGSCG (listed as Homo sapiens) [LAT9991]
analgesic effect compared with gabapentin at 100 mg/kg body weight orally (Chung rats; 5 mg/kg body weight PO): comparable
analgesic effect compared with gabapentin at 100 mg/kg body weight (Chung rats; 5 mg/kg body weight i.m.): comparable
effect on the contralateral paw responses (Chung rats; PO): No effect
time after administration within which effect on paw withdrawal threshold was observed (Chung rats; PO): ≤ 1 h
time for which effect on paw withdrawal threshold was maintained (Chung rats; PO): at least 4 hours
improvement in paw withdrawal threshold compared with LAT8881 (Chung rats; PO, vs Example 7): comparable
effect on the contralateral paw (Chung rats; i.m.): no effect
time after administration within which effect on paw withdrawal threshold was observed (Chung rats; i.m.): ≤ 1 h
time for which effect on paw withdrawal threshold was maintained (Chung rats; i.m.): at least 4 hours
improvement in paw withdrawal threshold compared with LAT8881 (Chung rats; i.m., vs Example 5): comparable
biological activity compared to the parent peptide LAT8881 (magnitude and duration of neuropathic analgesia) (Chung rats; nerve constriction model): equivalent or substantially equivalent
paw withdrawal threshold of ipsilateral paw (Chung rats; oral gavage 1, 2 and 5 mg/kg body weight): significant dose-dependent improvement
paw withdrawal threshold of ipsilateral paw (Chung rats; single i.m. injection, about 0.1 to 5 mg/kg body weight): significant dose-dependent improvement

human growth hormone: human growth hormone, comparator in the spinal cord slice recording
effect on post-synaptic current (Lamina I or II neurones): no effect
